Test results reported in patent US8163509B2, “Biological markers predictive of anti-cancer response to insulin-like growth factor-1 receptor kinase inhibitors” (The Regents of the University of Colorado, A Body Corporate, priority 2008, dated 2012).
Read-outs that look alike come from different tables or passages of the source.

Assays:
Assay in all cases: SRB proliferation assay, 72 h
NCI-H508 CRC cell line = format: cell-based; conditions: Homo sapiens
Procedure: (§1) FIG. 17: Results of cell proliferation assay on the panel of 27 CRC cell lines. Cell proliferation was evaluated by SRB following exposure to OSI-906 for 72 hours. Cells were plated at an optimized density in 96-well plates, incubated overnight at 37° C., and then exposed to a serial dilution of OSI-906. After 72 hours incubation, cells were fixed with trichloroacetic acid and an SRB was performed as described in materials and methods.
(§2) Cell Lines and Culture. […] human colon cancer cell lines, were obtained from American Type Culture Collection (Manassas, Va.). Cells were grown in RPMI medium supplemented with 10% fetal bovine serum, 1% non-essential amino acids, 1% penicillin/streptomycin and were maintained at 37° C. in an incubator under an atmosphere containing 5% CO2. The cells were routinely screened for the presence of mycoplasma (MycoAlert, Cambrex Bio Science, Baltimore, Md.) and were exposed to PQIP when they reached approximately 70% confluence.
(§3) The CRC cell lines were treated with a range of concentrations of PQIP (from 0.05-5 μM) for 72 hours.
(§4) Cell Lines and Culture: Twenty-seven human colon cancer cell lines, were obtained from American Type Culture Collection (Manassas, Va.). The GEO cells were a generous gift from Dr. Fortunato Ciardiello (Cattedra di Oncologia Medica, Dipartimento Medico-Chirurgico di Internistica Clinica e Sperimentale “F Magrassi e A Lanzara,” Seconda Università degli Studi di Napoli, Naples). All cells except GEO were grown in RPMI medium supplemented with 10% fetal bovine serum, 1% non-essential amino acids, 1% penicillin/streptomycin and were maintained at 37° C. in an incubator under an atmosphere containing 5% CO2. GEO cells were grown in DMEM/F12 supplemented with 10% fetal bovine serum, 1% non-essential amino acids, 1% penicillin/streptomycin. The cells were routinely screened for the presence of mycoplasma (MycoAlert, Cambrex Bio Science, Baltimore, Md.) and were exposed to OSI-906 when they reached approximately 70% confluence. OSI-906 was provided by OSI Pharmaceuticals, (Boulder, Colo.) and prepared as a 10 mM stock solution in DMSO.
(§5) Assessment of responsiveness of a panel of CRC cell lines to OSI-906. In order to assess CRC cell lines with differential sensitivity to OSI-906, a panel of 27 CRC cell lines were exposed to increasing concentrations of OSI-906 and proliferation was measured using the SRB assay as described previously (Pitts, T M, et al. Mol Cancer Ther 2009; 8(2):342-9). As depicted in FIG. 17 there was a wide range of sensitivity of the CRC cell lines to OSI-906, the majority of the cell lines failing to reach an IC50 up to 5 μmol/L, but a clear distinction could be made between the cell lines that were sensitive and the cell lines that were resistant.

HCT15 CRC cell line = format: cell-based; conditions: Homo sapiens
Procedure: as §1, §2, §3, §4, §5

LS180 CRC cell line = format: cell-based; conditions: Homo sapiens
Procedure: as §1, §2, §3, §4, §5

SW403 CRC cell line = format: cell-based; conditions: Homo sapiens
Procedure: as §1, §2, §3, §4, §5

SW1116 CRC cell line = format: cell-based; conditions: Homo sapiens
Procedure: as §1, §2, §3, §4, §5

SW837 CRC cell line = format: cell-based; conditions: Homo sapiens
Procedure: as §1, §2, §3, §4, §5

T84 CRC cell line = format: cell-based; conditions: Homo sapiens
Procedure: as §1, §2, §3, §4, §5

Colo205 CRC cell line = format: cell-based; conditions: Homo sapiens, COLO 205
Procedure: as §1, §2, §3, §4, §5

SW1463 CRC cell line = format: cell-based; conditions: Homo sapiens
Procedure: as §1, §2, §3, §4, §5

LS513 CRC cell line = format: cell-based, human
Procedure: as §1, §2
(§6) Cytotoxicity and Combination Effects: HT29, HCT116, RKO, and LS513 CRC cell lines were exposed to 0-10 nM SN-38 (7-Ethyl-10-hydroxy-camptothecin), 0-10 μM Oxaliplatin, or 0-50 μM 5-Fluorouracil (5-FU) for 72 hours. HT29, HCT116, RKO, and LS513 CRC cell lines were exposed to PQIP in combination with SN-38, Oxaliplatin or 5-FU. In all combinations, cells were seeded in 96-well flat bottomed plates and left overnight. PQIP and chemotherapy were both added for 72 hours. The results of the combinations were analyzed by the Chou and Talalay method with Calcusyn (Biosoft, Ferguson, Mo.).
as §3
(§7) Combination treatment of PQIP with Chemotherapy in Colon Cancer Cell Lines: IGF1R is overexpressed in CRC and has been associated with resistance to chemotherapy. Therefore, we investigated the effect of PQIP in combination with standard chemotherapy for CRC. Four CRC cell lines including, two PQIP sensitive and two PQIP resistant, were chosen for combinations. HT29 and LS513 CRC cell lines were classified as sensitive, with IC50's around 0.3 μmol/L. HCT116 and RKO CRC cell lines were classified as resistant, with IC50>5 μmol/L. Concentrations were chosen based on single agent proliferation curves for each compound. Cells were exposed to PQIP and chemotherapy (SN38, oxaliplatin, or 5-Fluorouracil) concurrently for 72 h and combinations were assessed using the SRB assay. […] It thus appears that biomarkers which predict tumor cell sensitivity will also indicate which cells will respond in a synergistic manner to an IGF-1R kinase inhibitor (e.g. PQIP) and chemotherapy (i.e. SN38, oxaliplatin, or 5-Fluorouracil).
Cell Lines and Culture: Twenty-seven human colon cancer cell lines, were obtained from American Type Culture Collection (Manassas, Va.). The GEO cells were a generous gift from Dr. Fortunato Ciardiello (Cattedra di Oncologia Medica, Dipartimento Medico-Chirurgico di Internistica Clinica e Sperimentale “F Magrassi e A Lanzara,” Seconda Università degli Studi di Napoli, Naples). All cells except GEO were grown in RPMI medium supplemented with 10% fetal bovine serum, 1% non-essential amino acids, 1% penicillin/streptomycin and were maintained at 37° C. in an incubator under an atmosphere containing 5% CO2. GEO cells were grown in DMEM/F12 supplemented with 10% fetal bovine serum, 1% non-essential amino acids, 1% penicillin/streptomycin. […]

RKO CRC cell line = format: cell-based, human; conditions: for IC50: Homo sapiens
Procedure: as §1, §2, §6, §3
as §7, with “5-Fluorouracil). […]” for “5-Fluorouracil).”

[1] = 72 hours, read-out: IC50, proliferation, OSI-906 (SRB)
[2] = 72 hours, 0.05-5 μM, read-out: IC50, growth inhibition by PQIP (SRB)

## C[C@]1(O)C[C@@H](c2nc(-c3ccc4ccc(-c5ccccc5)nc4c3)c3c(N)nccn32)C1 [OSI-906, cis-3-[8-amino-1-(2-phenyl-quinolin-7-yl)-imidazo[1,5-a]pyrazin-3-yl]-1-methyl-cyclobutanol]
NCI-H508 CRC cell line; [1]
  IC50: > 5 µM
NCI-H508 CRC cell line; read-out: S/I/R to OSI-906
  IC50: > 5 µM
HCT15 CRC cell line; HCT-15, 72 hours, read-out: IC50, proliferation, OSI-906 (SRB)
  IC50: > 5 µM
HCT15 CRC cell line; HCT-15, read-out: S/I/R to OSI-906
  IC50: > 5 µM
LS180 CRC cell line; [1]
  IC50: > 5 µM
LS180 CRC cell line; read-out: S/I/R to OSI-906
  IC50: > 5 µM
SW403 CRC cell line; SW-403, 72 hours, read-out: IC50, proliferation, OSI-906 (SRB)
  IC50: > 5 µM
SW403 CRC cell line; SW-403, read-out: S/I/R to OSI-906
  IC50: > 5 µM
SW1116 CRC cell line; SW 1116, 72 hours, read-out: IC50, proliferation, OSI-906 (SRB)
  IC50: > 5 µM
SW1116 CRC cell line; SW 1116, read-out: S/I/R to OSI-906
  IC50: > 5 µM
SW837 CRC cell line; [1]
  IC50: > 5 µM
SW837 CRC cell line; read-out: S/I/R to OSI-906
  IC50: > 5 µM
T84 CRC cell line; [1]
  IC50: > 5 µM
T84 CRC cell line; T-84, read-out: S/I/R to OSI-906
  IC50: > 5 µM
Colo205 CRC cell line; CoLo205, read-out: S/I/R to OSI-906
  IC50: ≤ 1.5 µM
Colo205 CRC cell line; Colo205, 72 hours, read-out: IC50, proliferation, OSI-906 (SRB)
  IC50: ≤ 1.5 µM
SW1463 CRC cell line; [1]
  IC50: > 5 µM
SW1463 CRC cell line; read-out: S/I/R to OSI-906
  IC50: > 5 µM
LS513 CRC cell line; Homo sapiens, LS-513, 72 h, LS513, 72 hours, read-out: IC50, proliferation, OSI-906 (SRB)
  IC50: ≤ 1.5 µM
LS513 CRC cell line; Homo sapiens, LS-513, LS513, read-out: S/I/R to OSI-906
  IC50: ≤ 1.5 µM
RKO CRC cell line; [1]
  IC50: > 5 µM
RKO CRC cell line; read-out: S/I/R to OSI-906
  IC50: > 5 µM

## CN1CCN([C@H]2C[C@@H](c3nc(-c4ccc5ccc(-c6ccccc6)nc5c4)c4c(N)nccn43)C2)CC1 [PQIP, cis-3-[3-(4-Methyl-piperazin-1-yl)-cyclobutyl]1-(2-phenyl-quinolin-7-yl)-imidazo[1,5-a]pyrazin-8-ylamine]
NCI-H508 CRC cell line; [2]
  IC50: > 5 µM
HCT15 CRC cell line; HCT-15, 72 hours, 0.05-5 μM, read-out: IC50, growth inhibition by PQIP (SRB)
  IC50: > 5 µM
LS180 CRC cell line; [2]
  IC50: > 5 µM
SW403 CRC cell line; SW-403, 72 hours, 0.05-5 μM, read-out: IC50, growth inhibition by PQIP (SRB)
  IC50: > 5 µM
SW1116 CRC cell line; SW 1116, 72 hours, 0.05-5 μM, read-out: IC50, growth inhibition by PQIP (SRB)
  IC50: > 5 µM
SW837 CRC cell line; [2]
  IC50: > 5 µM
T84 CRC cell line; [2]
  IC50: > 5 µM
Colo205 CRC cell line; Colo205, 72 hours, 0.05-5 μM, read-out: IC50, growth inhibition by PQIP (SRB)
  IC50: < 0.5 µM
SW1463 CRC cell line; [2]
  IC50: > 5 µM
LS513 CRC cell line; Homo sapiens, LS-513, 72 h, LS513, 72 hours, 0.05-5 μM, read-out: IC50, growth inhibition by PQIP (SRB)
  IC50: < 0.5 µM
LS513 CRC cell line; LS513, 72 hours, 0.05-5 μM, read-out: IC50, growth inhibition by PQIP (SRB)
  IC50: ~0.3 µM
LS513 CRC cell line; LS513, PQIP with SN38, oxaliplatin or 5-Fluorouracil concurrently 72 h, nearly all CI values, Chou and Talalay
  combination index (CI) values, PQIP and chemotherapy: 0.2-1.0
RKO CRC cell line; [2]
  IC50: > 5 µM
RKO CRC cell line; PQIP with SN38, oxaliplatin or 5-Fluorouracil concurrently 72 h, nearly all combinations, Chou and Talalay
  combination index (CI) values, PQIP and chemotherapy: 0.6-1.4
